Where “and” joins values, the source holds several entries; their conditions need not be identical. Identical values can stand only once. Ends that are not written are not given here.
Assays:
[1] = target: L^d molecules complexed with QL9 peptide, on the cell surface (mouse) (UniProt P01887)
[2] = target: recombinant biotinylated L^d immobilized on an avidin-coated support, with QL9 peptide (mouse) (UniProt P01897)
[3] = target: L^d molecules complexed with QL9 peptide, on the cell surface (mouse) (UniProt P01887); experiment: cell-based or functional assay
[4] = target: L^d molecules complexed with p2Ca peptide, on transfected Drosophila S2 cells (mouse) (UniProt P01887); experiment: cell-based or functional assay
HLA B27 = experiment: Peptide-induced thermostabilization of HLA B27 on Drosophila cells (W6/32 cytofluorimetry); format: cell-based, human
Description: Twenty-four hours prior to FACS analysis, CuSO4 is added to the stably transfected S2 cells (3-4×10^6 cells/ml) to a final concentration of 1 mM, thereby “switching on” expression from the transfected genes. Cells are plated out in 24-well cluster dishes (2 ml per well). Eight hours prior to FACS analysis, the CuSO4 medium is replaced with fresh medium (1 ml) with or without peptide at a concentration of 50 μg/ml. 37° C. temperature challenges are carried out by transferring the dishes onto a flat surface in a 37° C. room at various time intervals prior to harvesting the cells for analysis.
To analyze surface expression of Class I MHC on the S2 cells, aliquots of cells (5×10^5) are transferred into tubes on ice, collected by centrifugation (1,000×g for 4 minutes), resuspended in 3 ml of PBS/1% BSA, 0.02% sodium azide, collected by centrifugation and resuspended in PBS/BSA (0.5 ml) containing the appropriate primary antibody (ascites fluids Y3, 28:14:8S, 30.5.7, W6/32, diluted 1:200). Rabbit antisera are diluted 1:500 and B22.293 hybridoma supernatant is used directly. After a one hour incubation on ice, cells are washed twice in 3 ml of PBS/BSA and resuspended in 0.5 ml of PBS/BSA containing FITC labeled secondary antibody (Cappell, Durham, N.C.) and 1 ng/ml propidium iodide. […] Samples are then analyzed by FACS 440 (Becton Dickinson). […]

[5] = system: CD8^+ 2C lymph node cells; experiment: Primary proliferative response of CD8+ 2C lymph node cells to peptides presented by transfected fly cells (3HTdR); format: cell-based, mouse; settings: peptide 10 μM
Description: (§1) Using a standard tissue culture system (Cai, Z. and Sprent, J. (1994) J. Exp. Med. 179: 2005-2015), doses of 5×10^4 purified CD8^+ 2C lymph node (LN) cells were cultured at 37° C. with doses of 3×10^5 transfected fly cells ±peptides (10 μM final concentration). Peptides were synthesized by R. W. Johnson Pharmaceutical Research Institute (Sykulev, et al. (1994) Immunity 1: 15-22. Proliferative responses were measured by adding ^3HTdR (1 μCi/well) 8 hours prior to harvest. IL-2 production was measured by removing supernatants from the cultures at 48 hours and adding 50 μl supernatant to an IL-2 responsive indicator cell line (CTLL); proliferation of the indicator line was measured by addition of ^3HTdR. The data shown in Table 2 are the means of triplicate cultures. The transfected Drosophila S2 cells die rapidly at 37° C. and fail to incorporate ^3HTdR at this temperature.

[6] = system: CD8^+ 2C lymph node cells; experiment: IL-2 production by CD8+ 2C lymph node cells (CTLL indicator line 3HTdR); format: cell-based, mouse; settings: peptide 10 μM
Description: as §1

CD8^+ 2C cells [7] = experiment: CD69 and CD25 expression on CD8+ 2C cells stimulated with transfected Drosophila cells plus peptide; format: cell-based, mouse; settings: Drosophila cells expressing L^d alone; peptide 10 μM, 12 hours
Description: TCR stimulation elicited a complex pattern of intracellular events which lead to early up-regulation of CD69 and CD25 (IL-2 receptor or IL-2R) on the cell surface. These changes are apparent within a few hours of stimulation and are followed by cytokine synthesis and cell proliferation. Drosophila cells were transfected with genes for L^d, L^d and B7.1 (L^d.B7), L^d and ICAM-1 (L^d.ICAM) or L^d, B7.1 and ICAM-1 (L^d.B7.1CAM). […] Purified CD8^+ 2C cells were incubated with various Drosophila cells plus a peptide (either p2Ca or QL9, 10 μM) in bulk (2 ml) culture for 12 hours and then stained for CD69 or CD25. Either p2Ca or QL9 presented by Drosophila cells transfected with L^d.B7, L^d.ICAM or L^d.B7.1CAM were effective in stimulating the up-regulation of CD69 and CD25.

CD8^+ 2C cells [8] = experiment: Dose-response of day 3 proliferation of CD8+ 2C cells to peptides on transfected Drosophila APC; format: cell-based, mouse
Description: Responses to p2Ca (above) and QL9 (below) were measured by culturing 5×10^4 purified CD8^+ 2C cells with 2×10^5 Drosophila cells in the presence or absence of the indicated concentrations of peptides for 3 days. [^3H] TdR was added during the last 8 hours of culture; rIL-2 was added at a final concentration of 20 units/ml. The data are the mean of triplicate cultures. When supplemented with exogenous IL-2, however, both peptides stimulated significant proliferative responses at high doses (10 μM). The proliferative responses elicited by QL9 were far stronger than for p2Ca (note the large difference between the scales of x-axes of the upper and the lower panel).
Dose-response relationships for proliferation on day 3 elicited by Drosophila cells transfected with L^d.B7.1CAM and presenting p2Ca peptide were compared to those elicited by Drosophila cells transfected with L^d.B7, L^d.ICAM or L^d.B7.1CAM presenting QL9 peptide. Drosophila APC (2×10^5 cells) were cultured with 5×10^4 CD8^+ 2C cells for three days in the presence or absence of peptides. [^3H] TdR was added during the last 8 hours of culture; no IL-2 was added to the cultures.

2C+ T-cells [9] = format: cell-based, mouse
2C+ T-cells [10] = experiment: Enrichment of 2C+ T-cells from a 1/99 mixture with C57BL/6 CD8+ cells (1B2 staining, flow cytofluorometry); format: cell-based, mouse
Description: 2C+ T-cells were mixed with total CD8^+ cells from C57BL/6 mice at a 1/99 ratio and cells were cultured with immobilized L^d and anti-CD28 antibody in the presence of peptide QL9. IL-2 was added at day 2 of culture, and subsequently every other day. Cell activation and proliferation was noted, as evidenced by the formation of clumps, presence of enlarged cells that progressively spread in the well. At day 12 of culture, cells were harvested and percentage of cells expressing the 2C T-cell receptor was assessed by staining with the anticlonotypic antibody 1B2 and analysis by flow cytofluorometry: 43% of the cells cultured initially in the presence of peptide QL9 were 2C+, (FIG. 22) whereas 49% of the cells expressed 2C after stimulation with peptide p2Ca (FIG. 23), and 22% with peptide SL9 (FIG. 24). […] Enrichment was observed even with SL9, a peptide that makes a low affinity complex with the 2C T-cell receptor. This method thus can specifically activate and enrich a small subpopulation of antigen specific T-cells out of a heterogenous mixture of T-cells.

B3/CD8 T-cell hybridoma = experiment: Antigen presentation assay with B3/CD8 T-cell hybridoma (IL-2 via CTLL 3H thymidine); format: cell-based, murine; settings: peptide added to culture medium or protein osmotically loaded
Description: Osmotic loading of SC2 and 3T3 cells with ovalbumin protein was carried out as described by Moore, et al., Cell 54: 777-785 (1988). The assay procedure is as follows. In a 96-well dish, 1×10^5 Drosophila cells (with or without peptide/protein loaded) or 3T3 cells were cocultured with 1×10^5 B3/CD8 T-cell hybridoma cells in 200 μl of RPMI media supplemented with 10% fetal bovine serum. After 24 hours of incubation, 100 μl of the supernatant from these cultures was added to 100 μl of RPMI containing 5,000 CTLL cells. The cells were cocultured for 24 hours at 37° C. when 1 uCi of ^3H thymidine (Amersham) was added. After a further incubation of 15 hours at 37° C., the incorporation of radiolabel into the CTLL cells was determined by scintillation counting.
Assays conducted with murine MHC also verified that the insect cells are capable of loading peptide onto the Class I molecules. Cells expressing as few as 200-500 MHC molecules containing a particular antigen can be detected by a T-cell. […] Upon antigenic stimulation, B3/CD8 produces IL-2, measured by ^3H thymidine incorporation in IL-2-dependent T-cell line CTLL (Gillis, et al., J. Immunol. 120: 2027 91978)). Thus, by measuring the amount of IL-2 produced, one can assay for T-cell recognition. […]

[11] = target: T1, soluble H-2 K^b (K^bsol): heterodimer of truncated K^b heavy chain and murine β-2 microglobulin, purified from Drosophila cells (murine), P01901
T1 chain 1: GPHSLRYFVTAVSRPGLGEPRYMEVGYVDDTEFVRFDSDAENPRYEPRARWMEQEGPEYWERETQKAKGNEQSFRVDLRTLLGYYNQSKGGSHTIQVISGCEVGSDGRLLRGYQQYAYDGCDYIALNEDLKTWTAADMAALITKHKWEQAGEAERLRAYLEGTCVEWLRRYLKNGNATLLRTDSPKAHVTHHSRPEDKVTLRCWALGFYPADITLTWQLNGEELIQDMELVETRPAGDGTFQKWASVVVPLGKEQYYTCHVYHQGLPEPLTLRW
T1 chain 2: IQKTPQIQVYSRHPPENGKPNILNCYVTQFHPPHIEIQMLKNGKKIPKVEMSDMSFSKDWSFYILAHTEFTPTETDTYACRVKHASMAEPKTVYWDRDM

Sequence of L^d molecules complexed with p2Ca peptide, on transfected Drosophila S2 cells (mouse) (P01897 25-362, one chain of several): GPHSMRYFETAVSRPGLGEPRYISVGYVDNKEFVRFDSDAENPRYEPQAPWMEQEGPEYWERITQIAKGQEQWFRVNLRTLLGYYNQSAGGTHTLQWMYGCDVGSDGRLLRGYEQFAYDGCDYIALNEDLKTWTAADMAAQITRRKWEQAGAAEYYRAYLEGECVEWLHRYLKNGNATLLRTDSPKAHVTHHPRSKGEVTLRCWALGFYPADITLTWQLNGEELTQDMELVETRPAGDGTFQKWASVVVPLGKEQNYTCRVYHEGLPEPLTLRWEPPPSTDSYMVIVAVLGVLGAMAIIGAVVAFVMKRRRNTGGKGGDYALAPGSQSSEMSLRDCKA
Sequence of L^d molecules complexed with QL9 peptide, on the cell surface (mouse) (P01897 25-362, one chain of several): as above
Sequence of recombinant biotinylated L^d immobilized on an avidin-coated support, with QL9 peptide (mouse) (P01897 25-309): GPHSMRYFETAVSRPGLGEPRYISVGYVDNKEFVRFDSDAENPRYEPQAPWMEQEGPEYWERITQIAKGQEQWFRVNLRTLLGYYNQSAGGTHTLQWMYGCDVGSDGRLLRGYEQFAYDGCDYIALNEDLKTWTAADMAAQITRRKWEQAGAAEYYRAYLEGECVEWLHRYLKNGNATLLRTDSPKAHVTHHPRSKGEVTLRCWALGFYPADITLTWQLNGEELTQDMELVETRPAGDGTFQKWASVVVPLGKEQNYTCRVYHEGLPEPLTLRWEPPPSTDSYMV

Molecule: 2C T-cell receptor on T-cells of 2C TCR transgenic mice
- percent of the lymphocytes included in rosettes [1]: 30% and 40%
- percent of the lymphocytes included in rosettes [2]: 30% and 40%
- Proliferation (Day 3), ^3HTdR incorporation; fly cells expressing L^d [3]: 200 cpm
- Proliferation (Day 3), ^3HTdR incorporation; fly cells expressing L^d + B7.1 [3]: 60900 cpm
- Proliferation (Day 3), ^3HTdR incorporation; fly cells expressing L^d + ICAM-1 [3]: 73900 cpm
- Proliferation (Day 3), ^3HTdR incorporation; fly cells expressing L^d [4]: 200 cpm
- Proliferation (Day 3), ^3HTdR incorporation; fly cells expressing L^d + B7.1 [4]: 300 cpm
- Proliferation (Day 3), ^3HTdR incorporation; fly cells expressing L^d + ICAM-1 [4]: 1500 cpm

Molecule: FRIGCRHSR [HIV Vpr peptide]
- thermostabilization of HLA B27 surface expression (HLA B27): stabilizes B27

Molecule: ILKEPVHGV [HIV POL peptide]
- thermostabilization of HLA B27 surface expression (HLA B27): not B27

Molecule: LSPFPFDL [p2Ca]
- Proliferation (Day 3) ^3HTdR incorporation, fly cells expressing L^d ([5]; APC L^d): 0.2 cpm × 10^3
- Proliferation (Day 3) ^3HTdR incorporation, fly cells expressing L^d + B7.1 ([5]; APC L^d + B7.1): 0.3 cpm × 10^3
- Proliferation (Day 3) ^3HTdR incorporation, fly cells expressing L^d + B7.1 + ICAM-1 ([5]; APC L^d + B7.1 + ICAM-1): 142.0 cpm × 10^3
- Proliferation (Day 3) ^3HTdR incorporation, fly cells expressing L^d + ICAM-1 ([5]; APC L^d + ICAM-1): 1.5 cpm × 10^3
- Proliferation (Day 3) ^3HTdR incorporation, L^d + B7.1 combined with L^d + ICAM-1 ([5]; mixture of two APC lines): 1.5 cpm × 10^3
- IL-2 Production (Day 2) ^3HTdR incorporation, fly cells expressing L^d ([6]; APC L^d): 0.2 cpm × 10^3
- IL-2 Production (Day 2) ^3HTdR incorporation, fly cells expressing L^d + B7.1 ([6]; APC L^d + B7.1): 0.2 cpm × 10^3
- IL-2 Production (Day 2) ^3HTdR incorporation, fly cells expressing L^d + B7.1 + ICAM-1 ([6]; APC L^d + B7.1 + ICAM-1): 64.6 cpm × 10^3
- IL-2 Production (Day 2) ^3HTdR incorporation, fly cells expressing L^d + ICAM-1 ([6]; APC L^d + ICAM-1): 0.1 cpm × 10^3
- IL-2 Production (Day 2) ^3HTdR incorporation, L^d + B7.1 combined with L^d + ICAM-1 ([6]; mixture of two APC lines): 0.3 cpm × 10^3
- induction of CD69 and CD25 expression (CD8^+ 2C cells [7]): barely detectable
- proliferation of 2C CD8+ cells (CD8^+ 2C cells [8]; Drosophila cells with L^d alone, no exogenous lymphokines): failed
- peptide concentration required for optimal day 3 proliferative response (CD8^+ 2C cells [8]; L^d.B7.1CAM APC, no IL-2): 10 µM
- activation (mitogenesis) of 2C+ T-cells (2C+ T-cells [9]): able to activate
- enrichment in specific T-cells after 12 days (2C+ T-cells [10]; start 1/99): 49 times
- cells expressing the 2C T-cell receptor (2C+) at day 12 (2C+ T-cells [10]; start 1/99 2C+/total CD8+, immobilized L^d and anti-CD28, IL-2 from day 2): 49%

Molecule: ovalbumin protein: ovalbumin (Sigma Chem. Co.) osmotically loaded into the cells (EQLESIINFEKLTEWTSSNVMEER)
- T-cell recognition (IL-2 response) of K^b Drosophila cells (B3/CD8 T-cell hybridoma): no recognition

B1: [^125I]VSV-8 (radioiodinated VSV-8 peptide) (peptide)
peptide: RGYVYQGL
modifications: not checked
- percent of the total labeled peptide able to bind [11]: 65%

— patent publication US20030138946A1
